Key:
blood lymphocytes = assay: Measurement of circulating lymphocytes (blood lymphocyte depletion) in mice; assay type: in vivo, Mice (C57bl/6); conditions: Mus musculus, oral gavage, blood collected 6 and 24 hours after administration, read-out: ED50, effective dose required displaying 50% of blood lymphocyte depletion
Protocol: C. In Vivo: Screening Assays for Measurement of Blood Lymphocyte Depletion and Assessment of Heart Effect
Measurement of circulating lymphocytes: Compounds are dissolved in DMSO and diluted to obtain a final concentration of 4% DMSO (v/v, final concentration) and then further diluted in a constant volume of Tween80 25%/H2O, v/v. Tween80 25%/H2O (200 μl), 4% DMSO, and FTY720 (10 μg) are included as negative and positive controls, respectively. Mice (C57bl/6 male, 6-10 week-old) are administered 250-300 μL of compound solution orally by gavages under short isoflurane anesthesia.
Blood is collected from the retro-orbital sinus 6 and 24 hours after drug administration under short isoflurane anesthesia. Whole blood samples are subjected to hematology analysis. Peripheral lymphocyte counts are determined using an automated analyzer. Subpopulations of peripheral blood lymphocytes are stained by fluorochrome-conjugated specific antibodies and analyzed using a fluorescent activating cell sorter (Facscalibur). Two mice are used to assess the lymphocyte depletion activity of each compound screened. The result is an ED50, which is defined as the effective dose required displaying 50% of blood lymphocyte depletion.

human EDG-1 (S1P1) = target: T1, human EDG-1 (S1P1) (Homo sapiens, UniProt P21453); assay: GTP [γ-35S] binding assay, membranes from CHO cells expressing human EDG-1; assay type: biochemical; conditions: EDG-1 GTP [γ-35S] binding, CHO cell membranes
T1 construct: expressed in transfected cells
Protocol: A. In Vitro: GPCR Activation Assay Measuring GTP [γ-^35S] Binding to Membranes Prepared from Cho Cells Expressing Human EDG Receptors
EDG-1 (S1P1) GTP [γ-^35S] binding assay: Homogenized membranes are prepared from CHO cell clones stably expressing a human EDG-1 N-terminal c-myc tag. Cells are grown in suspension in two 850 cm^2 roller bottles for three or fours days before harvesting. The cells are centrifuged down, washed once with cold PBS, and resuspended in ≦20 ml of Buffer A (20 mM HEPES, pH 7.4, 10 mM EDTA, EDTA-free complete protease inhibitor cocktail [1 tablet/25 ml]). The cell suspension is homogenized on ice, using a Polytron homogenizer at 30000 rpm at three intervals of 15 seconds each. The homogenate is first centrifuged at 2000 rpm on a tabletop low speed centrifuge for 10 minutes. The supernatant, after passing through a cell strainer, is then re-centrifuged at 50,000×g for 25 minutes at 4° C. The pellet is resuspended into buffer B (15% glycerol, 20 mM HEPES, pH 7.4, 0.1 mM EDTA, EDTA-free complete protease inhibitor cocktail [1 tablet/10 ml]). Protein concentration of the prep is determined using the BCA Protein Assay kit (Pierce) using BSA as standard. The membranes are aliquoted and kept frozen at −80° C.
Solutions of test compounds ranging from 10 mM to 0.01 nM are prepared in DMSO. S1P is diluted in 4% BSA solution as positive controls. […]

T1 sequence (P21453 whole entry): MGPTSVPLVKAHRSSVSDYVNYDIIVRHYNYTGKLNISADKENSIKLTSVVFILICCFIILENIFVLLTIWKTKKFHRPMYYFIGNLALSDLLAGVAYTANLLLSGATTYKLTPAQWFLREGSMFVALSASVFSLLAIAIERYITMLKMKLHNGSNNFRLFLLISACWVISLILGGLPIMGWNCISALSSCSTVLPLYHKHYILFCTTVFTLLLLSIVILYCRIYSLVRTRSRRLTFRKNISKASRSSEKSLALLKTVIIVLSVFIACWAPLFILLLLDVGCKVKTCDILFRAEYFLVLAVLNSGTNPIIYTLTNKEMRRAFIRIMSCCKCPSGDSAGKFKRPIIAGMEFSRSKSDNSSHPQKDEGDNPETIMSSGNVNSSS

EC50 (human EDG-1 (S1P1)) [nM] | Compound | ED50 (blood lymphocytes) [mg/kg]
0.8 | CCc1cc(/C(C)=N/OCc2ccc(C3CCCCC3)c(C(F)(F)F)c2)ccc1CNCCC(=O)O [Example 2, 3-{4-[1-(4-Cyclohexyl-3-trifluoromethyl-benzyloxyimino)-ethyl]-2-ethyl-benzylamino}-propionic acid] | 0.07
0.2 | CCc1cc(/C(C)=N/OCc2ccc(C3CCCCC3)c(C(F)(F)F)c2)ccc1CN1CC(C(=O)O)C1 [Example 3, 1-{4-[1-(4-Cyclohexyl-3-trifluoromethyl-benzyloxyimino)-ethyl]-2-ethyl-benzyl}-azetidine-3-carboxylic acid] | 0.1

— US7939519B2, “Immunosuppresant compounds and compositions” (Novartis AG, priority 2003, dated 2011)
